Entries after “also recorded” stand apart in the source; their conditions may differ.
Experiments:
Assay type in all cases: physicochemical
[1] = Photostability at solid state (chemical purity by HPLC after illumination); settings: for HPLC peak area, QTX125 RRT 1.00 / HPLC peak area, RRT 1.04 / HPLC peak area, RRT 1.12 / degradation (in words) / colour change of the solid material: solid-state; for degradation (in words): up to 171 hours
Description: (§1) The method for determining purity by HPLC—used throughout these examples—used the following parameters:
(§2) The photostability of novel crystalline forms of QTX125 was assessed at solid state and in solution. Where ‘forced illumination’ conditions were used, samples were illuminated at 12 Klux/hour and 2.8 UV W/m^2/hour. Samples were stored at a temperature of 30° C. Following incubation, the chemical purity of QTX125 was measured by HPLC.
(§3) The following index is provided to aid navigation of the data presented in Tables 3.1.1 to 3.3.6: • 3.1.x—Assessment of the photostability of QTX125 Form 2. • 3.2.x—Assessment of the photostability of amorphous QTX125. • 3.3.x—Assessment of the photostability of the QTX125 1:2 L-Lysine adduct. • 3.x.1—Samples (at solid state) stored in unsealed clear glass bottles, subject to forced illumination. • 3.x.2—Samples (at solid state) sealed under nitrogen in clear glass bottles, subject to forced illumination. • 3.x.3—Samples (at solid state) sealed under nitrogen in amber glass bottles, illuminated under ambient laboratory conditions • 3.x.4—Samples (at solid state) sealed under nitrogen in amber glass bottles, subject to forced illumination. • 3.x.5—Samples (in solution) sealed under nitrogen in amber glass bottles, illuminated under ambient laboratory conditions. • 3.x.6—Samples (in solution) sealed under nitrogen in amber glass bottles, subject to forced illumination.

[2] = Aqueous solubility at 37° C. (HPLC of filtered suspension); settings: for peak solubility: at 1 hour
Description: The solubility of novel crystalline forms of QTX125 was assessed in the following aqueous solutions: (i) phosphate buffer, pH 3.5, 0.9% w/v sodium chloride; (ii) phosphate buffer, pH 6.5, 0.9% w/v sodium chloride; (iii) acetate buffer, pH 4.5, 0.9% w/v sodium chloride; (iv) citro-phosphate buffer, pH 4.5, 0.9% w/v sodium chloride; (v) sodium chloride, 0.9% w/v and (vi) deionised water. All assays were completed at 37° C.
In brief, 30 mg QTX125 was dispensed into vessels followed by 5 mL of the appropriate aqueous buffer. Mixtures were suspended by agitation and heated to 37° C. At various fixed intervals, an 0.4 mL aliquot of the suspension was removed, filtered and diluted for examination by HPLC. A single HPLC reference sample was used.

[3] = Photostability in solution (THF and water), HPLC; settings: for HPLC peak area, QTX125 RRT 1.00 / HPLC peak area, RRT 1.04 / HPLC peak area, RRT 1.12 / degradation (in words): in solution (THF and water), sealed under nitrogen in amber glass bottles; for degradation (in words): up to 171 hours
Description: as §1, §2, §3

[4] = sealed under nitrogen in amber glass bottles, ambient laboratory conditions, 0 hours
[5] = sealed under nitrogen in amber glass bottles, ambient laboratory conditions, 3 hours
[6] = sealed under nitrogen in amber glass bottles, ambient laboratory conditions, 50 hours
[7] = sealed under nitrogen in amber glass bottles, ambient laboratory conditions, 171 hours
[8] = sealed under nitrogen in amber glass bottles, forced illumination, 171 hours
[9] = sealed under nitrogen in clear glass bottles, forced illumination
[10] = sealed under nitrogen in clear glass bottles, forced illumination, 0 hours
[11] = sealed under nitrogen in clear glass bottles, forced illumination, 3 hours
[12] = sealed under nitrogen in clear glass bottles, forced illumination, 50 hours
[13] = sealed under nitrogen in clear glass bottles, forced illumination, 171 hours
[14] = unsealed clear glass bottles, forced illumination
[15] = unsealed clear glass bottles, forced illumination, 0 hours
[16] = unsealed clear glass bottles, forced illumination, 3 hours
[17] = unsealed clear glass bottles, forced illumination, 50 hours
[18] = unsealed clear glass bottles, forced illumination, 171 hours
[19] = ambient laboratory conditions, 171 hours

## NCCCC[C@H](N)C(=O)O.NCCCC[C@H](N)C(=O)O.O=C(NO)c1ccc(CNC(=O)c2[nH]c(-c3ccc(O)cc3)cc2-c2ccoc2)cc1 [QTX125 1:2 L-Lysine adduct]
[1]; at solid state
  photostability as compared to amorphous QTX125: enhanced photostability; also recorded: improved photostability
[1]; [4]
  HPLC peak area, QTX125 RRT 1.00: 96.83%
  HPLC peak area, RRT 1.04: 1.15%
[1]; [5]
  HPLC peak area, QTX125 RRT 1.00: 96.82%
  HPLC peak area, RRT 1.04: 1.21%
[1]; [6]
  HPLC peak area, QTX125 RRT 1.00: 97.84%
  HPLC peak area, RRT 1.04: 0.58%
[1]; [7]
  HPLC peak area, QTX125 RRT 1.00: 97.29%
  HPLC peak area, RRT 1.04: 1.30%
  HPLC peak area, RRT 1.12: 0.35%
[1]; sealed under nitrogen in amber glass bottles, ambient laboratory conditions
  degradation (in words): little evidence of degradation
[1]; [8]
  HPLC peak area, QTX125 RRT 1.00: 96.27%
  HPLC peak area, RRT 1.04: 1.74%
  HPLC peak area, RRT 1.12: 0.59%
[1]; sealed under nitrogen in amber glass bottles, forced illumination
  degradation (in words): degrades slightly
[1]; [9]
  colour change of the solid material: A change in the colour of the solid material was not identified
  degradation (in words): degrades under forced illumination to two principal components
[1]; [10]
  HPLC peak area, QTX125 RRT 1.00: 96.83%
  HPLC peak area, RRT 1.04: 1.15%
[1]; [11]
  HPLC peak area, QTX125 RRT 1.00: 95.57%
  HPLC peak area, RRT 1.04: 1.90%
  HPLC peak area, RRT 1.12: 0.65%
[1]; [12]
  HPLC peak area, QTX125 RRT 1.00: 89.67%
  HPLC peak area, RRT 1.04: 5.79%
  HPLC peak area, RRT 1.12: 2.74%
[1]; [13]
  HPLC peak area, QTX125 RRT 1.00: 85.21%
  HPLC peak area, RRT 1.04: 9.04%
  HPLC peak area, RRT 1.12: 3.94%
[1]; [14]
  colour change of the solid material: A change in the colour of the solid material was not identified
  degradation (in words): degrades under forced illumination to two principal components
[1]; [15]
  HPLC peak area, QTX125 RRT 1.00: 96.83%
  HPLC peak area, RRT 1.04: 1.15%
[1]; [16]
  HPLC peak area, QTX125 RRT 1.00: 95.51%
  HPLC peak area, RRT 1.04: 1.98%
[1]; [17]
  HPLC peak area, QTX125 RRT 1.00: 88.96%
  HPLC peak area, RRT 1.04: 6.16%
  HPLC peak area, RRT 1.12: 3.08%
[1]; [18]
  HPLC peak area, QTX125 RRT 1.00: 84.14%
  HPLC peak area, RRT 1.04: 9.20%
  HPLC peak area, RRT 1.12: 4.38%
[2]
  solubility in a saline solution compared to other forms, including an amorphous form: more soluble
[2]; aqueous buffer, 37° C.
  PXRD analysis of the solid recovered at 24 hours: identified the precipitating entity as Form 2
[2]; buffer (i) phosphate buffer, pH 3.5, 0.9% w/v sodium chloride, 37° C., 1 hour
  concentration of QTX125 (solubility): 0.28 µg/mL
[2]; buffer (i) phosphate buffer, pH 3.5, 0.9% w/v sodium chloride, 37° C., 4 hours
  concentration of QTX125 (solubility): 0.33 µg/mL
[2]; buffer (i) phosphate buffer, pH 3.5, 0.9% w/v sodium chloride, 37° C., 7 hours
  concentration of QTX125 (solubility): 0.23 µg/mL
[2]; buffer (i) phosphate buffer, pH 3.5, 0.9% w/v sodium chloride, 37° C., 24 hours
  concentration of QTX125 (solubility): 0.34 µg/mL
[2]; buffer (ii) phosphate buffer, pH 6.5, 0.9% w/v sodium chloride, 37° C., 1 hour
  concentration of QTX125 (solubility): 0.32 µg/mL
[2]; buffer (ii) phosphate buffer, pH 6.5, 0.9% w/v sodium chloride, 37° C., 4 hours
  concentration of QTX125 (solubility): 0.24 µg/mL
[2]; buffer (ii) phosphate buffer, pH 6.5, 0.9% w/v sodium chloride, 37° C., 7 hours
  concentration of QTX125 (solubility): 0.39 µg/mL
[2]; buffer (ii) phosphate buffer, pH 6.5, 0.9% w/v sodium chloride, 37° C., 24 hours
  concentration of QTX125 (solubility): 0.28 µg/mL
[2]; buffer (iii) acetate buffer, pH 4.5, 0.9% w/v sodium chloride, 37° C., 1 hour
  concentration of QTX125 (solubility): 0.25 µg/mL
[2]; buffer (iii) acetate buffer, pH 4.5, 0.9% w/v sodium chloride, 37° C., 4 hours
  concentration of QTX125 (solubility): 0.35 µg/mL
[2]; buffer (iii) acetate buffer, pH 4.5, 0.9% w/v sodium chloride, 37° C., 7 hours
  concentration of QTX125 (solubility): 0.35 µg/mL
[2]; buffer (iii) acetate buffer, pH 4.5, 0.9% w/v sodium chloride, 37° C., 24 hours
  concentration of QTX125 (solubility): 0.33 µg/mL
[2]; buffer (iv) citro-phosphate buffer, pH 4.5, 0.9% w/v sodium chloride, 37° C., 1 hour
  concentration of QTX125 (solubility): 0.33 µg/mL
[2]; buffer (iv) citro-phosphate buffer, pH 4.5, 0.9% w/v sodium chloride, 37° C., 4 hours
  concentration of QTX125 (solubility): 0.29 µg/mL
[2]; buffer (iv) citro-phosphate buffer, pH 4.5, 0.9% w/v sodium chloride, 37° C., 7 hours
  concentration of QTX125 (solubility): 0.37 µg/mL
[2]; buffer (iv) citro-phosphate buffer, pH 4.5, 0.9% w/v sodium chloride, 37° C., 24 hours
  concentration of QTX125 (solubility): 0.27 µg/mL
[2]; buffer (v) sodium chloride, 0.9% w/v, 37° C., 1 hour
  concentration of QTX125 (solubility): 29.81 µg/mL
[2]; buffer (v) sodium chloride, 0.9% w/v, 37° C., 4 hours
  concentration of QTX125 (solubility): 16.91 µg/mL
[2]; buffer (v) sodium chloride, 0.9% w/v, 37° C., 7 hours
  concentration of QTX125 (solubility): 8.51 µg/mL
[2]; buffer (v) sodium chloride, 0.9% w/v, 37° C., 24 hours
  concentration of QTX125 (solubility): 4.52 µg/mL
[2]; buffer (vi) deionised water, 37° C., 1 hour
  concentration of QTX125 (solubility): 24.5 µg/mL
[2]; buffer (vi) deionised water, 37° C., 4 hours
  concentration of QTX125 (solubility): 16.22 µg/mL
[2]; buffer (vi) deionised water, 37° C., 7 hours
  concentration of QTX125 (solubility): 10.14 µg/mL
[2]; buffer (vi) deionised water, 37° C., 24 hours
  concentration of QTX125 (solubility): 7.76 µg/mL
[2]; buffers (i) to (iv), 37° C.
  solubility (in words): very low
[2]; deionised water (buffer vi), 37° C., listed as 1:2 L-Lysine adduct
  peak solubility: 24.5 µg/mL
[2]; deionised water (buffer vi), 37° C., listed as adduct
  peak solubility: 24.5 µg/mL
[2]; sodium chloride 0.9% w/v (buffer v), 37° C., listed as 1:2 L-Lysine adduct
  peak solubility: 29.81 µg/mL
[2]; sodium chloride 0.9% w/v (buffer v), 37° C., listed as adduct
  peak solubility: 29.81 µg/mL
[3]; [19]
  HPLC peak area, QTX125 RRT 1.00: 93.18%
  HPLC peak area, RRT 1.04: 1.50%
  HPLC peak area, RRT 1.12: 0.97%
[3]; ambient laboratory conditions
  degradation (in words): degrades
[3]; forced illumination, 0 hours
  HPLC peak area, QTX125 RRT 1.00: 96.83%
  HPLC peak area, RRT 1.04: 1.15%
[3]; forced illumination, 3 hours
  HPLC peak area, QTX125 RRT 1.00: 98.01%
  HPLC peak area, RRT 1.04: 0.71%
  HPLC peak area, RRT 1.12: 0.33%
[3]; forced illumination, 50 hours
  HPLC peak area, QTX125 RRT 1.00: 84.17%
  HPLC peak area, RRT 1.04: 1.03%
  HPLC peak area, RRT 1.12: 2.14%
[3]; forced illumination, 171 hours
  HPLC peak area, QTX125 RRT 1.00: 89.96%
  HPLC peak area, RRT 1.04: 2.82%
  HPLC peak area, RRT 1.12: 1.17%
[3]; forced illumination
  degradation (in words): degrades
[3]; in solution, amber glass bottles, ambient laboratory conditions, 171 hours
  photostability as compared to amorphous QTX125 and Form 2: enhanced photostability
[3]; in solution, amber glass bottles, forced illumination, 171 hours
  photostability as compared to amorphous QTX125 or Form 2: enhanced photostability
[3]; stored in solution (conclusion)
  photostability as compared to both QTX125 Form 2 and amorphous QTX125: improved photostability
